Assay results as given in paper PMC5409245, “An albumin-based tumor-targeted oxaliplatin prodrug with distinctly improved anticancer activity in vivo” (Chemical Science, 2016).
One block for each compound: values may come before it.

Columns and labels:
[1] = system: subcutaneous CT-26 tumors
Experimental: Mice were treated twice a week (Monday and Thursday) i.v. with concentrations equimolar to 9 mg kg^–1 oxaliplatin (each experimental group contained four animals). […] The experiment was performed twice with two different endpoints: overall survival vs. tissue collection 12 days after the first treatment. […] Data are means ± SEM.
CT-26 cells (5x105 in serum-free medium) were injected subcutaneously into the right flank
of Balb/c mice (gender is indicated in the respective figure). Animals were treated with the
indicated oxaliplatin-releasing drugs at concentrations equimolar to 9 mg/kg oxaliplatin (i.v.;
12 was dissolved in 0.9% NaCl solution, 11 in 10% propylene glycol/0.9% NaCl, and
oxaliplatin in 5% glucose solution according to the clinical protocol) twice a week (Mondays
and Thursdays). In case of cisplatin-releasing prodrugs, a dose equimolar to 3 mg/kg cisplatin
was applied twice a week. For all experiments four animals per treatment group were used.
Animals were controlled for distress development every day and tumor size was assessed
regularly by caliper measurement. Tumor volume was calculated using the formula: (length ×
width2). The experiments with oxaliplatin, 11 and 12 in male mice were performed twice
with two different endpoints: 1) overall survival and 2) collection of organ and tumor
In the second experiments, tumors were
formalin-fixed and paraffin-embedded.
Results were analyzed and illustrated and statistical analyses performed (as indicated) with
GraphPad Prism (GraphPad Software version 5,San Diego, CA).

CT-26 tumors = assay: Histological evaluation (H/E) of apoptotic and mitotic cell fractions in CT-26 tumors; format: in vivo, BALB/c mice; details: tumors of male mice, day 12, H/E stain, counting
Experimental: In order to better understand the observed differences in the activity of our compound panel, in a second experiment male CT-26-bearing animals were sacrificed on day 12 (24 h after the last treatment) and paraffin-embedded tumors were evaluated by H/E stain. […] In addition, as depicted in Fig. 5, the tumors of mice treated with 12 were clearly smaller than the ones of the other treatment groups. […] Furthermore, the histological evaluation of tumor material was only possible for 3 animals because the fourth mouse already experienced a complete remission at time of section (which means that the best responding animal was not available for evaluation). […]
mice was performed only with the endpoint overall survival. For cisplatin and 8, the […]
was performed. […]
experimental group contained four animals). Tumor volumes were calculated as described in the experimental part. […]
Figure S5: Apoptosis and mitosis levels in tumors after the treatment with compound 8, 11 and 12 in comparison to cis- and oxaliplatin: CT-26 cells were injected subcutaneously into the right flank of male BALB/c mice. […] The fractions of apoptotic and mitotic cells were evaluated by counting (4 pictures per sample, at least 300 cells per picture were counted). […]
The statistical significance was calculated by One-Way Anova and is indicated with asterisks (* P < 0.05; ** P < 0.01; *** P < 0.001).

[2] = Serum platinum levels 24 h after single treatment (SEC-ICP-MS and FI-ICP-MS); format: in vivo, BALB/c mice
From the text: It is well accepted that albumin targeting distinctly impacts on the plasma half-life time as well as tissue distribution.[36] Especially, the enhanced accumulation due to the EPR effect makes this form of tumor-targeting very interesting for the development of novel cancer therapeutics.[13] As our novel compounds have a double prodrug nature (albumin-binding and the need of activation by reduction), we were interested in the drug tissue distribution after treatment. To this end, male CT-26-bearing BALB/c mice were treated once with our compounds followed by sample collection 24 h later. […] In accordance to many other non-targeted drugs,[37]–[40] for both platinum(II) drugs the intratumoral drug levels were distinctly lower than in the liver and kidney (which usually have very high drug levels due to their important function in metabolism and excretion).
Mice were treated once i.v. with 9 mg kg^–1 oxaliplatin and the equimolar concentrations in the case of 11 and 12 as well as 3 mg kg^–1 cisplatin and an equimolar dose in the case of 8. After 24 h, animals were anesthetized, sacrificed by heart puncture and tumor, liver, kidney tissue as well as serum were collected. Each experimental group contained four animals. (A) Organ platinum-distribution measured by ICP-MS. Data are expressed as mean ± standard deviation. (B) Platinum-SEC-ICP-MS measurements of serum samples (C) serum platinum levels measured by FI-ICP-MS. Data are expressed as mean ± standard deviation.
Table S10 : Column recovery.
Drug Conc. (µM) SD Column SD
A protein/amino acid mix was prepared to assess the separation performance of the applied SEC-HPLC setup. The mixture contained HSA, myoglobin, GSSG, and methionine. It has to be mentioned that HSA is forming dimers over time. However, the separation of the monomer and the dimer of HSA cannot be resolved with this chromatographic column.
Table S11 : Resulting size ladder.
SEC-ICP-MS measurements of in vivo serum samples
The ICP-QMS iCAP Thermo Scientific (Bremen, Germany) was used. Oxygen (purity 4.5, Linde Gas GmbH, Vienna, Austria) was used as reaction gas. The ICP-MS operation parameters are […]
Table S12 : ICP-MS operation parameters.
Nebulizer gas flow: 1.01 L/min
Aux. gas flow: 0.80 L/min
Plasma gas flow: 14 L/min
Reaction gas (oxygen) flow: 0.370 mL/min
As HPLC system a Thermo Scientific Transcend HPLC system (San Jose, CA, USA) was coupled to the ICP-QMS iCAP Thermo Scientific. Qtegra Intelligent Scientific Data Solution (version 2.4.1800.33) was employed for the data treatment. HPLC chromatographic conditions are […]
Table S13 : Chromatographic conditions.
HPLC column: BioBasic SEC-60 A, 4.6x250 mm, 5µm.
Eluent: 50 mM CH3COONH4, pH = 6.0.
Column Temperature: Room temperature
Autosampler Temperature: 37°C […]

[3] = Reduction with ascorbic acid monitored by RP-HPLC and 1H-NMR; format: physicochemical; details: 1 mM complex, 10 equivalents ascorbic acid, phosphate buffer pH = 7.4
Experimental: As one explanation of the observed differences between the compounds might be altered reducibility, we investigated the reduction rate in the presence of ascorbic acid in phosphate-buffered solution at pH = 7.4 using NMR spectroscopy and HPLC measurements. To reduce the number of additional signals from hydrolyzed maleimide species in the spectra, only the succinimide-functionalized compounds 9–10 and 13–14 were evaluated in these experiments (Fig. 7 and S6 ^†). For both NMR and HPLC measurements, the same complex concentrations (1 mM) and 10 equivalents ascorbic acid were used. […] Overall, there is a strong correlation between the reduction data and the in vivo activity. As such, the fast reduction of the cisplatin derivatives correlates with the low in vivo activity of 8 and relatively low plasma levels after 24 h. […]
1 mM solutions of the succinimide derivatives 9– 10 and 13–14 in 100 mM phosphate buffer (pH=7.4) were freshly prepared, mixed with 10 mM solutions of ascorbic acid in 100 mM phosphate buffer (pH=7.4) and measured by RP-HPLC every hour for up to 24 h. […] The reduction of the compound was monitored via UV-VIS detector at 225 nm and evaluated by the decrease of the initial compound peak area. […]

[4] = Stability in aqueous solution by analytical RP-HPLC; format: physicochemical
Experimental: The stability of the compounds in aqueous solution was monitored over several hours using analytical RP-HPLC. […] Thus, the hydrolysis can be clearly attributed to the maleimide moiety.
(§1) RP-HPLC stability and binding studies
(§2) To determine the stability, especially of the maleimide-function, 0.5 mM solutions of the complexes were prepared in triple distilled water and measured repeatedly over several hours. For determination of the binding rate towards human serum albumin (HSA), freshly prepared 1 mM aqueous solutions of a compound and HSA were mixed 1:1 and also measured repeatedly over several hours. All studies were carried out using a reversed-phase Waters XBridge C18 column on a Dionex Summit System. Milli-Q water, containing 0.1% formic acid, and methanol were used as eluents and a standard gradient from 5–95% methanol in 20 minutes was chosen. The autosampler, where the samples were incubated, was temperature controlled at 20°C and the column at 25°C. The loss of the complexes was monitored via UV-VIS detector at 225 nm and evaluated by the decrease of the compound […]
(§3) For sample preparation compounds 7– 14 were incubated separately in FCS. […] The samples were then stored in the autosampler at 37°C for 21 h and analyzed

[5] = biological target: T1, albumin fraction of fetal calf serum (Bos taurus, UniProt P02769); assay: Binding studies in fetal calf serum by SEC-ICP-MS; format: in vitro ADME; details: 37 °C
T1 construct: from tissue; host or cells: fetal calf serum (whole serum)
T1 sequence (P02769 25-607): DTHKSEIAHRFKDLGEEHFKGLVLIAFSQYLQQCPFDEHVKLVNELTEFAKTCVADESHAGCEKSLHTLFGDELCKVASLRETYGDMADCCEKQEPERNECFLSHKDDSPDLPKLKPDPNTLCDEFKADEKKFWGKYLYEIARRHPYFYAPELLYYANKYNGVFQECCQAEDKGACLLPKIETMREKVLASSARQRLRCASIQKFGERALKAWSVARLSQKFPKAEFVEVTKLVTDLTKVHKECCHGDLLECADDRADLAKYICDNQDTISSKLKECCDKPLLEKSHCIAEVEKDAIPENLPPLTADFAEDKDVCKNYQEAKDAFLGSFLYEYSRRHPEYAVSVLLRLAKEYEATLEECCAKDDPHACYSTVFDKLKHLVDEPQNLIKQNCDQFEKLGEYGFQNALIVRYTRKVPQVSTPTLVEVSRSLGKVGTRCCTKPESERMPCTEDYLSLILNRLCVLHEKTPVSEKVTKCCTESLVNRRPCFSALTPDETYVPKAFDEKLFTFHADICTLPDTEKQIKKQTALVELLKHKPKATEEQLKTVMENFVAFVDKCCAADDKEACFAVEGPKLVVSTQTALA
Experimental: To ascertain the actual binding target, the binding rate and the stability of the formed species under biological conditions, the compounds were incubated with fetal calf serum at 37 °C and sulfur- and platinum-containing (macro)molecules were measured with size exclusion chromatography inductively coupled plasma mass spectrometry (SEC-ICP-MS) over 21 h. Already at the first scan (∼5–10 min after incubation) ∼50% of the maleimide-containing compounds 7–8 and 11–12 were bound to the albumin fraction at 7.6 min (see Table S11 ^† for the corresponding size ladder). At the next time point after 140 min, in all cases, >80% of the drug was bound to albumin. […] Thus, the fast as well as specific binding to serum albumin was verified. […]
To determine the stability, especially of the maleimide-function, 0.5 mM solutions of the complexes were prepared in triple distilled water and measured repeatedly over several hours. For determination of the binding rate towards human serum albumin (HSA), freshly prepared 1 mM aqueous solutions of a compound and HSA were mixed 1:1 and also measured repeatedly over several hours. […] The loss of the complexes was monitored via UV-VIS detector at 225 nm and evaluated by the decrease of the compound […]
For sample preparation compounds 7– 14 were incubated separately in FCS. […] The samples were then stored in the autosampler at 37°C for 21 h and analyzed […]

[6] = biological target: T2, human serum albumin (HSA) (Homo sapiens, UniProt P02768); assay: Albumin-binding rate by RP-HPLC (decrease of unbound drug peak area); details: 1 eq. of HSA used
T2 construct: purchased Sigma Aldrich
T2 sequence (P02768 25-609): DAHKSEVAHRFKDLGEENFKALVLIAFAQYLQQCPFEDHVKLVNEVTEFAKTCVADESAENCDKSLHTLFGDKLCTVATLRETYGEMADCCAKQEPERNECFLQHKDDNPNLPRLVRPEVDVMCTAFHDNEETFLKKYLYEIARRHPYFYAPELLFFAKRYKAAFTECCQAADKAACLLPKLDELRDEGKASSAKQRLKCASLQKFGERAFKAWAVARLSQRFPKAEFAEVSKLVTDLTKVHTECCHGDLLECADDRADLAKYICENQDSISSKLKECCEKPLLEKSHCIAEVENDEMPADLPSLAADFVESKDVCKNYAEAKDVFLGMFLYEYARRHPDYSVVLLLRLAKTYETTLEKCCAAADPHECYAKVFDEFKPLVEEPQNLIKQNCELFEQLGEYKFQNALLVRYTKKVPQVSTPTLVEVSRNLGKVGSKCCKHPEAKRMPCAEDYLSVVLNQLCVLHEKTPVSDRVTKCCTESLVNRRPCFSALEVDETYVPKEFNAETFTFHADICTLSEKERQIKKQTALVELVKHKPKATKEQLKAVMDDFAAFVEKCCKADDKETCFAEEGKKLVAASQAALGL
Experimental: Next, the binding of the maleimide-functionalized complexes to the thiol group of human serum albumin (HSA) was investigated. Therefore, compounds 7–8 and 11–12 were incubated with HSA and the decrease of the peak area of the unbound drug was monitored (Fig. 2B, Table S19 ^†).
as §1, §2, §3

[7] = female BALB/c mice, 9 mg kg^–1 i.v. twice a week

SMILES: O=C1[O][Pt]2([NH][C@@H]3CCCC[C@H]3[NH]2)[O]C1=O [oxaliplatin]
adverse effects [1, 7]: very strong adverse effects | anticancer activity [1, 7]: widely ineffective | onset of activity ([1]; male BALB/c mice, i.v. twice a week, equimolar to 9 mg kg^–1 oxaliplatin): 8 days | apoptotic cell fraction in tumors (CT-26 tumors): highest

SMILES: N.N.[Cl][Pt][Cl] [cisplatin]
Pt conc. in serum ([2]; Mouse #1, serum 24 h after single i.v. treatment): 48 µg/L | Pt conc. in serum ([2]; Mouse #2, serum 24 h after single i.v. treatment): 46 µg/L | Pt conc. in serum ([2]; Mouse #3, serum 24 h after single i.v. treatment): 43 µg/L | Pt conc. in serum ([2]; Mouse #4, serum 24 h after single i.v. treatment): 44 µg/L

reduction by ascorbic acid, cisplatin-derived vs oxaliplatin-based [3]: reduced much faster | stability towards reduction, acetato vs methoxido ligand [3]: more stable | changes in aqueous solution ([4]; over a period of 24 hours): no changes | protein binding ability ([5]; during 21 h): negligible protein binding ability
SMILES: CC(=O)[O][Pt]([NH2])([NH2])([Cl])([Cl])[O]C(=O)NCCN1C(=O)CCC1=O [Compound 10]

Albumin-binding half-life λ1/2 [6]: 5.1 h | hydrolysis in aqueous solution ([4]; aqueous solution, 20°C): less than 1 % h^–1 | drug bound to the albumin fraction ([5]; 100 µM, first scan (∼5–10 min after incubation)): ~50%
SMILES: C[O][Pt]([NH2])([NH2])([Cl])([Cl])[O]C(=O)NCCN1C(=O)C=CC1=O [Compound 7, (OC-6-44)-Diamminedichloridomethoxido[2-(2,5-dioxo-2,5-dihydro-1H-pyrrol-1-yl)ethylcarbamato]platinum(IV)]
